# Source: US10227324B2 (Shanghai Haiyan Pharmaceutical Technology Co., Ltd., priority 2014, dated 2019)
# Where two headings read alike, the source gives them in different places.
# Legend:
# [1] = Metabolism stability assay in liver microsomes; assay type: in vitro ADME, mouse; settings: liver microsomal metabolism in mice
# Description: Buffer A: 1 L solution of 100 mM potassium dihydrogen phosphate containing 1 mM EDTA (Sigma, V900157-100G) was prepared. Buffer B: 1 L solution of 100 mM dipotassium hydrogen phosphate containing 1 mM EDTA was prepared. Buffer C: 700 mL of buffer B was taken out and titrated with buffer A to pH 7.4.
# 2.1 10 μl of 10 mM compound to be tested and 10 μl of 10 mM ketanserin were taken out and 190 μl of pure acetonitrile was added to each of them to prepare 500 μM compound to be tested and ketanserin, respectively.
# 2.2 20 μl (20 mg/mL) of liver microsomes (XENOTECH, H0610) stock solution was added to 513.4 μl of buffer C on wet ice. 0.75 mg/mL liver microsomal solution was obtained.
# 2.3 1.5 μl of each of the above-mentioned compound to be tested and ketanserin solution was added to 498.5 μl of liver microsomal solution (0.7 5 mg/mL) respectively on wet ice. 1.5 μM mixed solution of compound to be tested and 1.5 μM mixed solution of ketanserin were obtained.
# 2.4 At the time points 0, 5, 15, 30, 45, and 60 min, 30 μl of the mixed solution of compound to be tested and 30 μl of the mixed solution of ketanserin were dispensed into the reaction plate on wet ice, respectively.
# 2.5 5 mg reduced coenzyme II (Roche, 10621706001) was weighed and dissolved in 1 mL of buffer C. 6 mM reduced coenzyme II solution was obtained. The reduced coenzyme II solution was dispensed into the reaction plate.
# 2.6 Imipramine was dissolved to give a 10 mM solution. 10 μl imipramine solution was added to 100 mL of blank acetonitrile to generate the internal reference.
# 2.7 At 0 min, 135 μL of iced acetonitrile (Merck, UN 1648) containing the internal reference was added to each well and then 15 μL of buffer C was added.
# 2.8 The reaction plate was placed into a 37° C. water bath incubator for 5 min. In the reaction plate, 15 μL of reduced coenzyme II solution was added to each well to initiate the reaction, and the time keeping was started. At the time points of 5, 15, 30, 45, and 60 min, 135 μL of iced acetonitrile containing the internal reference was added to each well to terminate the reaction.
# 2.9 The reaction plate was sealed with an aluminum film, placed on a vibration mixer and shaken at 500 rpm for 5 min. The plate was then centrifuged in a centrifuge at 3750 rp for 15 min.
# 2.10 The sample was diluted with pure water in accordance with the ratio of 1:1 and detected by LC/MS.
# Half-life: 0.693/K (the slope by plotting based on the incubation time and logarithm of the concentration value)
# Clearance ratio: (0.693/half-life)*(1/protein concentration (0.5 mg/mL))*(proportional factor)
# Wherein, the K value and the proportional factor were calculated by those skilled in the art according to the methods described in the prior art and contained in the instructions of the liver microsome product.
# [2] = system: Akt phosphorylation (Ser473-p-Akt) in PC-3 cells; experiment: Inhibition of p-Akt phosphorylation level in PC-3 cells (cell level fluorescence imaging); assay type: cell-based; settings: Homo sapiens, read-out: PC-3 cell (IC50/nM)
# Description: This experiment was performed by cell level fluorescence image processing method.
# Triton X-100: 10% aqueous Triton X-100 solution (Sigma T8787-100 mL) was prepared, stored at 4° C. and diluted by 1:100 to give 0.1% Triton X-100 aqueous solution for use in the experiment.
# Prodium Iodide (PI): 1 mg/mL (1.5 mM) PI (Sigma P4170) storage solution was prepared with PBS and stored at −25° C. in the dark. For use, the PI storage solution was diluted with PBS by 1:1000 to give a 1.5 μM solution and used in dark.
# PC-3 cells in logarithmic growth phase were digested with 0.25% EDTA trypsin. 3000 cells/90 μL were seeded in a 96-well plate (BD 356692) and cultured at 37° C. and 5% CO2. After the cells adhered, 10 μL of the compound to be tested which was gradiently diluted 3 times (0.0046 to 10 μM, 8 concentration points, in duplicate) was added and incubated for 2 hours, followed by addition of 100 μL of 4% paraformaldehyde (DINGGUO AR-0211) and incubated at room temperature for 45 minutes. Then 100 μL of 0.1% Triton X-100 solution was added and incubated for another 30 minutes.
# Triton X-100 solution was removed and the cells were rinsed with 200 μl of PBS twice (300 rpm vibration for 1 minute). The blocking solution (1% BSA solution in PBS) (Genview FA016-100G) was added and incubated at room temperature for 2 hours. The plate was rinsed with PBS once (300 rpm, 1 min) and 30 μL of Ser473-p-Akt antibody (cell signaling 4060L) diluted with 0.1% BSA was added and incubated overnight at 4° C. Ser473-p-Akt antibody was removed and the plate was rinsed with PBS twice (300 rpm, 1 minute). 35 μL of Alexa Flour 488 donkey anti-rabbit IgG (Invitrogen A21206) was added and incubated at room temperature for 1.5 hours. The plate was rinsed with PBS twice (300 rpm, 1 minute) and 35 μL of 1.5 μM PI was added and incubated at room temperature for 0.5 h. The fluorescence intensity was measured with Acumen eX3 (TTP LabTech).
# 10 μM BEZ235 (Selleck S1009) treatment group was negative control and DMSO treatment group was positive control. Inhibition ratio %=[1−(the mean value of the fluorescence intensity of the compound to be tested−the mean value of the fluorescence intensity of the negative control group)/(the mean value of the fluorescence intensity of the positive control group−the mean value of the fluorescence intensity of the negative control group)]×100%
# MCF-7 cells = experiment: Cell inhibitory activity detected by MTT assay, MCF-7; assay type: cell-based; settings: Homo sapiens, MCF7, 72 h, read-out: MCF-7 cell (IC50/nM), cell growth inhibition
# Summary of the method: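 MCF-7 cells in DMEM + 10% FBS were treated after adherence with compounds at 8 concentrations (0.0046–10 μM) for 72 h at 37 °C, 5% CO2.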
# [3] = Akt phosphorylation in PC-3 cells, 2 hours incubation
Clearance ratio (mL/min/kg) mouse [1] [mL/min/kg],"IC50 [2, 3] [nM]",IC50 (MCF-7 cells) [nM],Compound,"IC50 ([2]; PC-3, 2 h) [nM]"
442.63,248,,CS(=O)(=O)C1(c2cc(-c3cnc(N)cc3C(F)(F)F)nc(N3CCOCC3)n2)CCC1 [Compound S-4],
,184,78,C[C@H]1COCCN1c1nc(-c2cnc(N)cc2C(F)(F)F)cc(C2(S(C)(=O)=O)CCC2)n1 [Compound S-9],
,384,340,CS(=O)(=O)C1(c2cc(-c3cnc(N)cc3C(F)(F)F)nc(N3CCOCC3)n2)CCCC1 [Compound S-10],
,463,153,"CC(C)S(=O)(=O)C1(c2cc(-c3cnc(N)cc3C(F)(F)F)nc(N3CCOC[C@@H]3C)n2)CCC1 [Compound S-13, (S)-5-(6-(1-(isopropylsulfonyl)cyclobutyl)-2-(3-methylmorpholino)pyrimidin-4-yl)-4-(trifluoromethyl)pyridin-2-amine]",
,430,437,CC(C)S(=O)(=O)C1(c2cc(-c3cnc(N)cc3C(F)(F)F)nc(N3CCOCC3)n2)CC1 [Compound S-18],
,575,,CC(C)S(=O)(=O)C1(c2cc(-c3cnc(N)cc3C(F)(F)F)nc(N3CCOCC3)n2)CCC1 [Compound S-19],
5641.44,,,Nc1cc(C(F)(F)F)c(-c2cc(C3(S(=O)(=O)c4ccccc4)CCC3)nc(N3CCOCC3)n2)cn1 [Compound S-20],
,366,246,CCS(=O)(=O)C1(c2cc(-c3cnc(N)cc3C(F)(F)F)nc(N3CCOC[C@@H]3C)n2)CCC1 [Compound S-23],
,101,101,C[C@H]1COCCN1c1nc(-c2cnc(N)nc2C(F)(F)F)cc(C2(S(C)(=O)=O)CCC2)n1 [Compound S-30],
,126,45,C[C@H]1COCCN1c1nc(-c2cnc(N)cc2Cl)cc(C2(S(C)(=O)=O)CCC2)n1 [Compound S-31],
,74,73,C[C@H]1COCCN1c1nc(-c2ccc(N)nc2)cc(C2(S(C)(=O)=O)CCC2)n1 [Compound S-32],
,109,79,C[C@H]1COCCN1c1nc(-c2cnc(N)nc2)cc(C2(S(C)(=O)=O)CCC2)n1 [Compound S-33],
,198,258,"CS(=O)(=O)C1(c2cc(-c3cnc(N)cc3Cl)nc(N3CCOCC3)n2)CC1 [Compound S-37, 4-chloro-5-(6-(1-(methylsulfonyl)cyclopropyl)-2-morpholinopyrimidin-4-yl)pyridin-2-amine]",
103.77,332,180,"CC(C)(c1cc(-c2cnc(N)cc2Cl)nc(N2CCOCC2)n1)S(C)(=O)=O [Compound S-38, 4-chloro-5-(6-(2-(methylsulfonyl)prop-2-yl)-2-morpholinopyrimidin-4-yl)pyridin-2-amine]",
,414,170,C[C@H]1COCCN1c1nc(-c2cnc(N)cc2C(F)(F)F)cc(C(C)(C)S(C)(=O)=O)n1 [Compound S-41],
89.54,156,329,CC(C)(c1cc(-c2cnc(N)nc2C(F)(F)F)nc(N2CCOCC2)n1)S(C)(=O)=O [Compound S-45],

Clearance ratio (mL/min/kg) mouse [1] [mL/min/kg],"IC50 [2, 3] [nM]",IC50 (MCF-7 cells) [nM],Compound,"IC50 ([2]; PC-3, 2 h) [nM]"
,382,187,"CCS(=O)(=O)C1(c2cc(-c3cnc(N)cc3C(F)(F)F)nc(N3CCOCC3)n2)CCC1 [Compound S-49, 5-(6-(1-(ethylsulfonyl)cyclobutyl)-2-morpholinopyrimidin-4-yl)-4-(trifluoromethyl)pyridin-2-amine]",
,488,159,"CS(=O)(=O)C(F)(F)c1cc(-c2cnc(N)cc2Cl)nc(N2CCOCC2)n1 [Compound S-54, 4-chloro-5-(6-(difluoro(methylsulfonyl)methyl)-2-morpholinopyrimidin-4-yl)pyridin-2-amine]",
,367,184,Nc1cc(C(F)(F)F)c(-c2cc(C3(S(=O)(=O)c4ccccc4F)CC3)nc(N3CCOCC3)n2)cn1 [Compound S-58],
,253,212,Nc1cc(Cl)c(-c2cc(C3(S(=O)(=O)c4ccccc4F)CC3)nc(N3CCOCC3)n2)cn1 [Compound S-66],
,187,105,C[C@@H]1COCCN1c1nc(-c2cnc(N)cc2Cl)cc(C(C)(C)S(C)(=O)=O)n1 [Compound S-67],
,183,94,C[C@@H]1COCCN1c1nc(-c2cnc(N)cc2Cl)cc(C2(S(C)(=O)=O)CC2)n1 [Compound S-68],
,385,131,COC(C)(C)c1cc(-c2cnc(N)cc2Cl)nc(N2CCOC[C@@H]2C)n1 [Compound S-75],
,531,66,COC(C)(C)c1cc(-c2cnc(N)cc2Cl)nc(N2CCOCC2)n1 [Compound S-76],
,215,104,CC(C)(c1cc(-c2cnc(N)cc2F)nc(N2CCOCC2)n1)S(C)(=O)=O [Compound S-81],
,196,11,C[C@H]1COCCN1c1nc(-c2cnc(N)cc2F)cc(C2(S(C)(=O)=O)CC2)n1 [Compound S-83],
,121,15,C[C@H]1COCCN1c1nc(-c2cnc(N)cc2F)cc(C(C)(C)S(C)(=O)=O)n1 [Compound S-84],
,161,25,CCS(=O)(=O)C1(c2cc(-c3cnc(N)cc3F)nc(N3CCOCC3)n2)CC1 [Compound S-85],
,240,29,CC(C)S(=O)(=O)C1(c2cc(-c3cnc(N)cc3F)nc(N3CCOCC3)n2)CC1 [Compound S-86],
,349,102,Nc1cc(F)c(-c2cc(C3(S(=O)(=O)C4CC4)CC3)nc(N3CCOCC3)n2)cn1 [Compound S-88],
,1020,639,CS(=O)(=O)C1(c2cc(N3CCOCC3)nc(-c3cnc(N)cc3C(F)(F)F)n2)CC1 [reference compound],

Compound,Clearance ratio (mL/min/kg) mouse [1] [mL/min/kg],"IC50 [2, 3] [nM]",IC50 (MCF-7 cells) [nM],"IC50 ([2]; PC-3, 2 h) [nM]"
"COC(C)(C)c1cc(-c2cnc(N)cc2C(F)(F)F)nc(N2CCOCC2)n1 [Compound S-71, 5-(6-(2-methoxypropan-2-yl)-2-morpholinopyrimidin-4-yl)-4-(trifluoromethyl) pyridin-2-amine]",,,436,555
